According to patent US20240059703A1 (AMGEN INC., priority 2021, published 2024):

Tests used:
[1] = tested on: A549 (human lung carcinoma) cells; assay: Cell Viability Assay (CellTiter-Glo), A549; assay type: cell-based; conditions: Homo sapiens, A549, 72 h
How it was run: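 MIA PaCa-2 or A549 cells in RPMI 1640 with 10% FBS were seeded at 1.67E+04 cells/mL and incubated overnight. Serially diluted compound was then added for 72 h at 37° C, 5% CO2. Viability read by CellTiter-Glo luminescence, normalized to DMSO, with IC50 from a 4-parameter logistic fit.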

[2] = target: KRAS G12C (Homo sapiens (Human), UniProt P01116, C118A/G12C); assay: 2 h coupled exchange assay; assay type: biochemical; conditions: Avg 2 h Coupled exchange IC50, 2 h compound pre-incubation
Sequence of KRAS G12C (P01116 other isoform, or with tags, fused parts or gaps G12C/C118A): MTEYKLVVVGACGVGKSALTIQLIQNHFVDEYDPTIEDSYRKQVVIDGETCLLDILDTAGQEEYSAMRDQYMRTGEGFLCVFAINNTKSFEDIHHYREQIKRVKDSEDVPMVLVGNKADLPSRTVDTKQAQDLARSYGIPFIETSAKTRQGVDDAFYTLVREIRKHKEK
Experimental: The term “2 h coupled exchange assay” or “20 h coupled exchange assay” as used herein refers to the assay described in the Section entitled “BIOLOGICAL EVALUATION.”

[3] = tested on: MIA PaCa-2 (human pancreatic carcinoma) cells; assay: Cell Viability Assay (CellTiter-Glo), MIA PaCa-2; assay type: cell-based; conditions: Homo sapiens, MIA PaCa-2, 72 h
Experimental: Serially-diluted compound or DMSO was added to the cells, and plates were incubated at 37° C., 5% CO2 for 72 h. Cell viability was measured using a CellTiter-Glo® Luminescent Cell Viability Assay kit (Promega) according to the manufacturer's protocol. The luminescence signal of treated samples was normalized to DMSO control, and data were analyzed using a 4-parameter logistic model to calculate IC50 values.

SMILES	IC50 [1] [µM]	IC50 [2] [µM]	IC50 [3] [µM]
C=CC(=O)N1CC2(CCN(c3nc4c(c(-c5c(F)ccc6[nH]ncc56)c3C)CCN(C(C)C)C4)C2)C1 [Example 18-15, 1-(6-(4-(5-fluoro-1H-indazol-4-yl)-3-methyl-7-(2-propanyl)-5,6,7,8-tetrahydro-1,7-naphthyridin-2-yl)-2,6-diazaspiro[3.4]octan-2-yl)-2-propen-1-one]	> 25	0.72	0.23
C=CC(=O)N1CC2(CCN(c3nc4c(c(-c5c(C)ccc6[nH]ncc56)c3C)CCN(C3CC3)C4)C2)C1 [Example 18-16, 1-(6-(7-cyclopropyl-3-methyl-4-(5-methyl-1H-indazol-4-yl)-5,6,7,8-tetrahydro-1,7-naphthyridin-2-yl)-2,6-diazaspiro[3.4]octan-2-yl)-2-propen-1-one]	> 5	0.355	0.188
C=CC(=O)N1CC2(CCN(c3nc4c(c(-c5cccc6cc(O)ccc56)c3C)CCN(C3CC3)C4)C2)C1 [Example 18-17, 1-(6-(7-cyclopropropyl-4-(6-hydroxy-1-naphthalenyl)-3-methyl-5,6,7,8-tetrahydro-1,7-naphthyridin-2-yl)-2,6-diazaspiro[3.4]octan-2-yl)-2-propen-1-one]	> 5	0.079	0.133
C=CC(=O)N1CC2(CCN(c3nc4c(c(-c5cccc6cc(O)ccc56)c3C)CCN(CC(O)C(F)(F)F)C4)C2)C1 [Example 18-18, 1-(6-(4-(6-hydroxy-1-naphthalenyl)-3-methyl-7-((2R)-3,3,3-trifluoro-2-hydroxypropyl)-5,6,7,8-tetrahydro-1,7-naphthyridin-2-yl)-2,6-diazaspiro[3.4]octan-2-yl)-2-propen-1one|1-(6-(4-(6-hydroxy-1-naphthalenyl)-3-methyl-7-((2S)-3,3,3-trifluoro-2-hydroxypropyl)-5,6,7,8-tetrahydro-1,7-naphthyridin-2-yl)-2,6-diazaspiro[3.4]octan-2-yl)-2-propen-1-one]	> 5	0.106	0.402
C=CC(=O)N1CC2(CCN(c3nc4c(c(-c5c(C)ccc6cnn(C)c56)c3C)CCN(C3CCCN(C)C3)C4)C2)C1 [Example 18-20, 1-(6-(4-(1,6-dimethyl-1H-indazol-7-yl)-3-methyl-7-((3R)-1-methyl-3-piperidinyl)-5,6,7,8-tetrahydro-1,7-naphthyridin-2-yl)-2,6-diazaspiro[3.4]octan-2-yl)-2-propen-1-one|1-(6-(4-(1,6-dimethyl-1H-indazol-7-yl)-3-methyl-7-((3S)-1-methyl-3-piperidinyl)-5,6,7,8-tetrahydro-1,7-naphthyridin-2-yl)-2,6-diazaspiro[3.4]octan-2-yl)-2-propen-1-one]	> 25	0.374	0.135
C=CC(=O)N1CC2(CCN(c3nc4c(c(-c5cccc(F)c5O)c3C)CCN(c3scnc3C)C4)C2)C1 [Example 18-21, 1-(6-(4-(3-fluoro-2-hydroxyphenyl)-3-methyl-7-(4-methyl-1,3-thiazol-5-yl)-5,6,7,8-tetrahydro-1,7-naphthyridin-2-yl)-2,6-diazaspiro[3.4]octan-2-yl)-2-propen-1-one]	> 25	0.8	3.37
C=CC(=O)N1CC2(CCN(c3nc4cc(-c5scnc5C)cnc4c(-c4cccc(C)c4C)c3C#N)C2)C1 [Example 19-1, 4-(2,3-Dimethylphenyl)-7-(4-methyl-1,3-thiazol-5-yl)-2-(2-(2-propenoyl)-2,6-diazaspiro[3.4]octan-6-yl)-1,5-naphthyridine-3-carbonitrile]	> 5	0.074	0.374
C=CC(=O)N1CC2(CCN(c3nc4cc(-c5scnc5C)ccc4c(-c4ccccc4C)c3C#N)C2)C1 [Example 19-2, 4-(2-methylphenyl)-7-(4-methyl-1,3-thiazol-5-yl)-2-(2-(2-propenoyl)-2,6-diazaspiro[3.4]octan-6-yl)-3-quinolinecarbonitrile]	> 5	0.126	1.45
C=CC(=O)N1CC2(CCN(c3nc4cc(-c5scnc5C)ccc4c(-c4c(O)cccc4F)c3C#N)C2)C1 [Example 19-3, 4-(2-fluoro-6-hydroxyphenyl)-7-(4-methyl-1,3-thiazol-5-yl)-2-(2-(2-propenoyl)-2,6-diazaspiro[3.4]octan-6-yl)-3-quinolinecarbonitrile]	4.18	0.058	0.717
C=CC(=O)N1CC2(CCN(c3nc4cc(-c5scnc5C)cnc4c(-c4ccc(F)cc4F)c3C#N)C2)C1 [Example 19-5, 4-(2,4-difluorophenyl)-7-(4-methyl-1,3-thiazol-5-yl)-2-(2-(2-propenoyl)-2,6-diazaspiro[3.4]octan-6-yl)-1,5-naphthyridine-3-carbonitrile]	> 5	0.096	0.452
C=CC(=O)N1CC2(CCN(c3nc4cc(-c5scnc5C)cnc4c(-c4ccccc4OC)c3C#N)C2)C1 [Example 19-6, 4-(2-methoxyphenyl)-7-(4-methyl-1,3-thiazol-5-yl)-2-(2-(2-propenoyl)-2,6-diazaspiro[3.4]octan-6-yl)-1,5-naphthyridine-3-carbonitrile]	> 5	0.363	1.13
C=CC(=O)N1CC2(CCN(c3nc4cc(-c5cncn5C)cnc4c(-c4ccccc4F)c3C#N)C2)C1 [Example 19-7, 4-(2-fluorophenyl)-7-(1-methyl-1H-imidazol-5-yl)-2-(2-(2-propenoyl)-2,6-diazaspiro[3.4]octan-6-yl)-1,5-naphthyridine-3-carbonitrile]	14.1	0.789	0.495
C=CC(=O)N1CC2(CCN(c3nc4cc(-c5scnc5C)cnc4c(-c4ccc(F)cc4)c3C#N)C2)C1 [Example 19-8, 4-(4-fluorophenyl)-7-(4-methyl-1,3-thiazol-5-yl)-2-(2-(2-propenoyl)-2,6-diazaspiro[3.4]octan-6-yl)-1,5-naphthyridine-3-carbonitrile]	11.2	0.28	0.32
C=CC(=O)N1CC2(CCN(c3nc4cc(-c5sc(CO)nc5C)cnc4c(-c4ccccc4Cl)c3C#N)C2)C1 [Example 19-9, 4-(2-chlorophenyl)-7-(2-(hydroxymethyl)-4-methyl-1,3-thiazol-5-yl)-2-(2-(2-propenoyl)-2,6-diazaspiro[3.4]octan-6-yl)-1,5-naphthyridine-3-carbonitrile]	> 5	0.056	0.204
C=CC(=O)N1CC2(CCN(c3nc4cc(-c5scnc5CO)cnc4c(-c4ccccc4F)c3C#N)C2)C1 [Example 19-10, 4-(2-fluorophenyl)-7-(4-(hydroxymethyl)-1,3-thiazol-5-yl)-2-(2-(2-propenoyl)-2,6-diazaspiro[3.4]octan-6-yl)-1,5-naphthyridine-3-carbonitrile]	15.3	0.113	1.13
C=CC(=O)N1CC2(CCN(c3nc4cc(-c5scnc5C)ccc4c(-c4ccccc4Cl)c3C#N)C2)C1 [Example 20-1, 4-(2-chlorophenyl)-7-(4-methyl-1,3-thiazol-5-yl)-2-(2-(2-propenoyl)-2,6-diazaspiro[3.4]octan-6-yl)-3-quinolinecarbonitrile]	> 5	0.149	1.56
C=CC(=O)N1CC2(CCN(c3nc4cc(-c5scnc5C)ccc4c(-c4ccccc4F)c3C#N)C2)C1 [Example 20-2, 4-(2-fluorophenyl)-7-(4-methyl-1,3-thiazol-5-yl)-2-(2-(2-propenoyl)-2,6-diazaspiro[3.4]octan-6-yl)-3-quinolinecarbonitrile]	> 5	0.146	1.44
C=CC(=O)N1CC2(CCN(c3nc4cc(OC)ccc4c(-c4ccccc4Cl)c3C#N)C2)C1 [Example 20-5, 4-(2-chlorophenyl)-7-methoxy-2-(2-(2-propenoyl)-2,6-diazaspiro[3.4]octan-6-yl)-3-quinolinecarbonitrile]	9.11	0.572	5.51
C=CC(=O)N1CC2(CCN(c3nc4cc(-c5scnc5C)ccc4c(-c4cccc(C)c4C)c3C#N)C2)C1 [Example 20-6, 4-(2,3-dimethylphenyl)-7-(4-methyl-1,3-thiazol-5-yl)-2-(2-(2-propenoyl)-2,6-diazaspiro[3.4]octan-6-yl)-3-quinolinecarbonitrile]	> 5	0.124	1.55
C=CC(=O)N1CC2(CCN(c3nc4cc(-c5scnc5C)cnc4c(-c4ccccc4Cl)c3C#N)C2)C1 [Example 20-7, 4-(2-chlorophenyl)-7-(4-methyl-1,3-thiazol-5-yl)-2-(2-(2-propenoyl)-2,6-diazaspiro[3.4]octan-6-yl)-1,5-naphthyridine-3-carbonitrile]	> 5	0.131	0.534
C=CC(=O)N1CC2(CCN(c3nc4cc(-c5scnc5C)c(C)cc4c(-c4ccccc4Cl)c3C#N)C2)C1 [Example 20-10, 2-(2-acryloyl-2,6-diazaspiro[3.4]octan-6-yl)-4-(2-chlorophenyl)-6-methyl-7-(4-methylthiazol-5-yl)quinoline-3-carbonitrile]	6.78	0.89	5.38
C=CC(=O)N1CC2(CCN(c3nc4cc(OC(C)C)ccc4c(-c4ccccc4Cl)c3C#N)C2)C1 [Example 20-11, 4-(2-chlorophenyl)-7-(2-propanyloxy)-2-(2-(2-propenoyl)-2,6-diazaspiro[3.4]octan-6-yl)-3-quinolinecarbonitrile]	8.81	0.834	3.1
